# Read-outs that look alike come from different tables or passages of the source.
# Legend:
# [1] = parameters: method as in Pacylex, data on file; conditions: preclinical models; ref Pacylex, data on file; cited from earlier work
# [2] = parameters: method as in doi:10.1182/blood-2019-124934; conditions: multiple daily oral administration; cited from earlier work
# [3] = system: cell line derived xenografts from breast carcinomas; parameters: method as in PMID 33398478; conditions: mice-bearing established human tumor xenografts; cited from earlier work
# [4] = system: cell line derived xenografts from lung carcinomas; parameters: method as in Pacylex Inc., data on file; conditions: mice-bearing established human tumor xenografts, ref Pacylex Inc., data on file; cited from earlier work
# human AML = system: human AML; parameters: method as in doi:10.1182/blood-2022-170544; conditions: murine tail-vein injection models of human AML; cited from earlier work
# [5] = human, in vivo
# Experimental: Peripheral blood samples were collected over six time points in the first 8 h of Cycle 1, Day 1 (C1D1), and again on C1D15. Pre-treatment Day 1 levels were obtained with every subsequent cycle.
compound,measurement,setting,value
Cc1c(NS(=O)(=O)c2c(Cl)cc(-c3ccnc(N4CCNCC4)c3)cc2Cl)c(CC(C)C)nn1C [zelenirstat],oral bioavailability,[1],high oral bioavailability
same,dose limiting toxicity in GLP non-clinical safety testing,[2],diarrhea was dose limiting
same,xenograft tumor response,[3],tumor growth inhibition
same,xenograft tumor response,[4],tumor growth inhibition
same,leukemic cell burden,human AML,reduced the leukemic cell burden
same,Plasma concentrations (Cmax and AUC values) in patients on PPIs compared to patients not taking PPIs,[5],tended to be lower
same,Systemic exposure (Cmax and AUC values) versus dose,[5],tended to increase with increasing dose
same,time to steady state (visual observation of pre-dose concentrations),[5],8 to 15 days
same,accumulation following repeated administration,[5]; 14 day,< 2 fold
same,accumulation ratio for AUC0 − 24 (ArAUC0−24),[5]; 14 day,1.0-1.9
same,accumulation ratio for Cmax (ArCmax),[5]; 14 day,0.41-1.72
same,accumulation ratios for both ArCmax and ArAUC0−24,[5]; 14 days,3-6 fold
same,time to steady state,[5]; po,≤ 15 days
same,"AUC0 − 24 (h*ng/mL) (mean, SD)","[5]; po, 20 mg",2066 (387) h*ng/mL
same,"Cmax (ng/ml) (mean, SD)","[5]; po, 20 mg",276 (117) ng/ml
same,"Tmax (h) (median, range)","[5]; po, 20 mg",1 (0.5–2.1) h
same,"t1/2 (h) (mean, SD)","[5]; po, 20 mg",7.4 (2.0) h
same,"AUC0 − 24 (h*ng/mL) (mean, SD)","[5]; po, 40 mg",7060 (6711) h*ng/mL
same,"Cmax (ng/ml) (mean, SD)","[5]; po, 40 mg",774 (720) ng/ml
same,"t1/2 (h) (mean, SD)","[5]; po, 40 mg",9.7 (3.0) h
same,"AUC0 − 24 (h*ng/mL) (mean, SD)","[5]; po, 70 mg",6613 (3526) h*ng/mL
same,"Cmax (ng/ml) (mean, SD)","[5]; po, 70 mg",467 (257) ng/ml
same,"Tmax (h) (median, range)","[5]; po, 70 mg",4.1 (4.0-7.9) h
same,"AUC0 − 24 (h*ng/mL) (mean, SD)","[5]; po, 100 mg","18,936 (9188) h*ng/mL"
same,"Cmax (ng/ml) (mean, SD)","[5]; po, 100 mg",2188 (1037) ng/ml
same,"Tmax (h) (median, range)","[5]; po, 100 mg",2.0 (2.0-3.8) h
same,"t1/2 (h) (mean, SD)","[5]; po, 100 mg",8.0 (2.3) h
same,"AUC0 − 24 (h*ng/mL) (mean, SD)","[5]; po, 140 mg",8150 (2846) h*ng/mL
same,"Cmax (ng/ml) (mean, SD)","[5]; po, 140 mg",1335 (964) ng/ml
same,"Tmax (h) (median, range)","[5]; po, 140 mg",2.0 (1.0–2.0) h
same,"t1/2 (h) (mean, SD)","[5]; po, 140 mg",10.4 (5.5) h
same,"AUC0 − 24 (h*ng/mL) (mean, SD)","[5]; po, 210 mg","27,558 (13,349) h*ng/mL"
same,"Cmax (ng/ml) (mean, SD)","[5]; po, 210 mg",2935 (1047) ng/ml
same,"Tmax (h) (median, range)","[5]; po, 210 mg",2.0 (1.0-3.9) h
same,"t1/2 (h) (mean, SD)","[5]; po, 210 mg",7.7 (3.4) h

# Source: publication PMC11327210, “A first-in-human phase I trial of daily oral zelenirstat, a N-myristoyltransferase inhibitor, in patients with advanced solid tumors and relapsed/refractory B-cell lymphomas” (Investigational New Drugs, 2024)
